The text below walks through data of US10604489B2, “Compounds for the treatment of pain” (priority 2018, dated 2020).

Where two headings read alike, the source gives them in different places. Bounds are passed on as bounds.

Data set [1] deals with Male Sprague-Dawley rats. The data set is described as follows: animal or person. The class given is in vivo, rat.
For data set [2], the system named is Male Sprague-Dawley rats. The conditions noted are these: rat; for <60 mmHg @ 100X CFA MEMD: dose 100× CFA MEMD.
Another data set concerns the target μ-receptor (Homo sapiens (Human), UniProt P35372). The data set is described as follows: Receptor binding, competitive displacement of [3H]DAMGO. The conditions noted are these: 0.25 nM [3H]DAMGO, CHO cell membrane protein, 60 min at 25° C. An outline of the steps:
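Membranes from CHO cells stably expressing cloned human μ-opioid receptor incubated 60 min at 25 °C with 12 compound concentrations and 0.25 nM [3H]DAMGO in 50 mM Tris-HCl pH 7.5; nonspecific binding with 10 μM naloxone. Filtration and scintillation counting; Ki from IC50 by Cheng-Prusoff.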
In general terms: Loss of bound radioactivity is the signal in a displacement assay; it reports binding, not function.

The target of data set [3] is T1, human μ opioid receptor (Homo sapiens (Human), UniProt P35372). The data set is described as follows: Functional activity ([35S]GTPγS binding). The class given is biochemical. The conditions noted are these: [35S]GTPγS 0.080 nM, CHO cell membranes, 60 min at 30° C., filtration. The method, boiled down:
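Membranes from stably transfected CHO cells (7.5 μg) incubated with 12 test-compound concentrations and 0.080 nM [35S]GTPγS in 50 mM Tris-HCl pH 7.4, 3 mM MgCl2, 0.2 mM EGTA, 3 μM GDP, 100 mM NaCl, 60 min at 30° C. Nonspecific binding defined with 10 μM GTPγS; bound label collected by filtration and scintillation counting.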
(In general: GTPγS is a poorly hydrolysed GTP analogue; its binding reports G protein activation.)

Data set [4] deals with T1, human μ opioid receptor. The data set is described as follows: Alternate functional activity ([35S]GTPγS binding) assay, SPA beads. Type of data set: biochemical. Particulars: alternate assay: [35S]GTPγS 0.020 nM, CHO cell membranes with WGA PVT SPA beads. The procedure:
The [^35S]GTPγS assay measures the functional properties of a compound by quantifying the level of G-protein activation following agonist binding in studies using stably transfected cells, and is considered to be a measure of the efficacy of a compound. Membranes from CHO (Chinese Hamster Ovary) cells that stably expressed one type of the cloned human opioid receptor human were used in the experiments. The assay buffer consisted of 50 mM Tris-HCl, pH 7.4, 3 mM MgCl2, 0.2 mM EGTA, 5 μM GDP, and 100 mM NaCl. CHO cell membranes stably expressing the human p opioid receptor were pre-incubated with scintillation proximity assay beads from PerkinElmer® (WGA PVT SPA) for 30 minutes, at 8 µg membrane and […] beads in a volume of 0.1 mL per reaction. In a final volume of 0.2 mL, 11 different concentrations of each test compound were incubated with the membrane-SPA bead mixture and a final concentration of 0.020 nM [35S]GTPγS for 1.5 hours with gentle shaking. Reactions were then incubated for 5 hours. Data are the mean EC50 values ±S.E.M. EC50 values (nM) for compounds 12, 16, 19, 20, 149, 151, 152, 157, 160, 161, 164-169, 172, 173, 180-197, and 199-207 are shown in Table 1.

[5] abbreviates: sc, minimum dose at which maximal reversal of hind paw weight bearing (50±0.5%) was achieved, subcutaneous administration, rat, read-out: MEMD SC CFA.
Setting [6] is: maximum pCO2 within 2 hours of administration, dose 10× CFA MEMD, subcutaneous.
Where [7] appears, read: maximum pCO2 within 2 hours of administration, subcutaneous.
[8] abbreviates: Rattus norvegicus, sc, read-out: MEMD SC CFA (mg/kg).

On to `COC[C@H](C)N1CC2CCCC(C1)C2(OC)c1ccnc(C(N)=O)c1.Cl` (single isomer, unassigned) [Compound 61], for which the minimal effective dose in the data set on Male Sprague-Dawley rats [1] (setting [5]) was 0.3 mg/kg. The “<60 mmHg @ 10X CFA MEMD” value in the data set with Male Sprague-Dawley rats [2] (setting [6]) was “+ (resulted in a maximum pCO2 value of less than 60 mmHg within 2 hours of administration)”. Further, the “<60 mmHg @ 100X CFA MEMD” value in the data set with Male Sprague-Dawley rats [2] (setting [7]) was “+ (resulted in a maximum pCO2 value of less than 60 mmHg within 2 hours of administration)”.
`COC1(c2cccc(C(N)=O)c2)C2CCCC1CN([C@H]1CCCOC1)C2.Cl` (single isomer, unassigned) [Compound 140]: the minimal effective dose with Male Sprague-Dawley rats [1] (setting [5]) is 0.1 mg/kg. For the same molecule, the “<60 mmHg @ 10X CFA MEMD” value with Male Sprague-Dawley rats [2] (setting [6]) is reported as “+ (resulted in a maximum pCO2 value of less than 60 mmHg within 2 hours of administration)”.
On to `CO[C@@]12CC[C@@]3(C[C@@H]1[C@](C)(O)C(C)(C)C)[C@H]1Cc4ccc(O)c5c4[C@@]3(CCN1CC1CC1)[C@H]2O5` [Buprenorphine, reference compound], for which, in the data set with Male Sprague-Dawley rats [1] (rat, in vivo), the “MEMD SC CFA” value was 0.1 mg/kg.
The term Ki denotes the dissociation constant of the complex between target and ligand, obtained from inhibition or displacement. Low values mean a stronger hold on the target, high ones a looser hold on the target. A word on the EC50: it is the concentration that produces a half-maximal response. A higher EC50 goes with weaker potency. At μ-receptor, `COC1(c2cccc(C(N)=O)c2)C2CCCC1CN(CC1CC1)C2.Cl` [Compound 22, 3-((1R,5S,9r)-3-(cyclopropylmethyl)-9-methoxy-3-azabicyclo[3.3.1]nonan-9-yl)benzamide hydrochloride] registered a Ki below 1 nM. This molecule came in with an EC50 on human μ opioid receptor [3] below 10 nM. The minimal effective dose with Male Sprague-Dawley rats [1] (setting [5]) worked out at 0.1 mg/kg. Also, the “<60 mmHg @ 10X CFA MEMD” value in the data set with Male Sprague-Dawley rats [2] (setting [6]) was “+ (resulted in a maximum pCO2 value of less than 60 mmHg within 2 hours of administration)”. The “<60 mmHg @ 100X CFA MEMD” value in the data set on Male Sprague-Dawley rats [2] (setting [7]) is “− (resulted in a maximum pCO2 value of greater than 60 mmHg within 2 hours of administration)”.
Taken in the same sequence, the figures for `COC1(c2cccc(C(N)=O)c2)C2CCCC1CN(C)C2.Cl` [Compound 23, 3-((1R,5S,9r)-9-methoxy-3-methyl-3-azabicyclo[3.3.1]nonan-9-yl)benzamide hydrochloride] were below 1 nM, below 10 nM, 0.1 mg/kg, “+ (resulted in a maximum pCO2 value of less than 60 mmHg within 2 hours of administration)” and “+ (resulted in a maximum pCO2 value of less than 60 mmHg within 2 hours of administration)”.
On μ-receptor, `COC1(c2ccnc(C(N)=O)c2)C2CCCC1CN(CC1CC1)C2.Cl` [Compound 27, 4-((1R,5S,9r)-3-(cyclopropylmethyl)-9-methoxy-3-azabicyclo[3.3.1]nonan-9-yl)picolinamide hydrochloride] returned a Ki of 1 to 5 nM. Further, the EC50 on human μ opioid receptor [3] lay within 10 to 75 nM. Also, the minimal effective dose in the data set on Male Sprague-Dawley rats [1] (setting [5]) amounted to 0.01 mg/kg. The “<60 mmHg @ 100X CFA MEMD” value in the data set with Male Sprague-Dawley rats [2] (setting [7]) is given as “+ (resulted in a maximum pCO2 value of less than 60 mmHg within 2 hours of administration)”.
Turning to `COC1(c2ccc(C(N)=O)s2)C2CCCC1CN(C)C2.Cl` [Compound 48, 5-((1R,5S,9r)-9-methoxy-3-methyl-3-azabicyclo[3.3.1]nonan-9-yl)thiophene-2-carboxamide hydrochloride], the Ki on μ-receptor was below 1 nM. This molecule also displayed an EC50 at human μ opioid receptor [3] of 10 to 75 nM. For the same molecule, the minimal effective dose in the data set on Male Sprague-Dawley rats [1] (setting [5]) was determined as 0.1 mg/kg.
On to `COC1(c2ccnc(C(N)=O)c2)C2CCCC1CN(C1CCOCC1)C2.Cl` [Compound 56, 4-((1R,5S,9r)-9-methoxy-3-(tetrahydro-2H-pyran-4-yl)-3-azabicyclo[3.3.1]nonan-9-yl)picolinamide hydrochloride], for which the inhibition constant Ki on μ-receptor was above 5 nM. The molecule also returned an EC50 on human μ opioid receptor [3] above 75 nM. In addition, in the data set with Male Sprague-Dawley rats [1] (setting [5]), the minimal effective dose amounted to 3 mg/kg.
Molecule `COC1(c2cccc(C(N)=O)c2)C2CCCC1CN(CCN1CCNC1=O)C2.Cl` [Compound 63, 3-((1R,5S,9r)-9-methoxy-3-(2-(2-oxoimidazolidin-1-yl)ethyl)-3-azabicyclo[3.3.1]nonan-9-yl)benzamide hydrochloride] returned a Ki at μ-receptor below 1 nM. The EC50 on human μ opioid receptor [3] lay within 10 to 75 nM. The minimal effective dose in the data set on Male Sprague-Dawley rats [1] (setting [5]) is above 1 mg/kg.
Taken in the same sequence, the figures for `COC1(c2cccc(C(N)=O)c2)C2CCCC1CN(CCN1C(=O)CCC1=O)C2.Cl` [Compound 65, 3-((1R,5S,9r)-3-(2-(2,5-dioxopyrrolidin-1-yl)ethyl)-9-methoxy-3-azabicyclo[3.3.1]nonan-9-yl)benzamide hydrochloride] were below 1 nM, below 10 nM and 0.1 mg/kg.
In the same order, the values of `COC1(c2ccnc(C(N)=O)c2)C2CCCC1CN(Cc1cnc[nH]1)C2.Cl` [Compound 96, 4-((1R,5S,9r)-3-((1H-imidazol-5-yl)methyl)-9-methoxy-3-azabicyclo[3.3.1]nonan-9-yl)picolinamide hydrochloride] are below 1 nM, 10 to 75 nM and 1 mg/kg.
`COC1(c2ccnc(C(N)=O)c2)C2CCCC1CN(C[C@@H]1C[C@@H]3C[C@@H]3C1)C2.Cl` (stereo partly drawn) [Compound 104, 4-((1R,5S,9R)-3-((1R,3s,5S)-bicyclo[3.1.0]hexan-3-ylmethyl)-9-methoxy-3-azabicyclo[3.3.1]nonan-9-yl)picolinamide hydrochloride]: the Ki at μ-receptor is below 1 nM. In addition, the EC50 at human μ opioid receptor [3] was in the range of 10 to 75 nM. Also, in the data set on Male Sprague-Dawley rats [1] (po, minimum dose at which maximal reversal of hind paw weight bearing was achieved, dosed orally, rat, read-out: MEMD SC CFA), the minimal effective dose is at most 0.1 mg/kg.
The molecule `COCCN1CC2CCCC(C1)C2(OC)c1cccc(C(N)=O)c1.Cl` [Compound 128, 3-((1R,5S,9r)-9-methoxy-3-(2-methoxyethyl)-3-azabicyclo[3.3.1]nonan-9-yl)benzamide hydrochloride] gave a Ki on μ-receptor below 1 nM. At human μ opioid receptor [3], the EC50 fell in the range of 10 to 75 nM. In the data set with Male Sprague-Dawley rats [1] (setting [5]), the minimal effective dose was found to be 1 mg/kg.
Turning to `COC1(c2cccc(C(N)=O)c2)C2CCCC1CN(CCC1CC1)C2.Cl` [Compound 138, 3-((1R,5S,9r)-3-(2-cyclopropylethyl)-9-methoxy-3-azabicyclo[3.3.1]nonan-9-yl)benzamide hydrochloride], the Ki at μ-receptor is below 1 nM. The molecule also displayed an EC50 at human μ opioid receptor [3] below 10 nM. In addition, the minimal effective dose in the data set on Male Sprague-Dawley rats [1] (setting [5]) came to 0.3 mg/kg.
With `CO[C@@]1(c2ccnc(C(N)=O)c2)[C@@H]2CCC[C@H]1CN(Cc1ncc(C)[nH]1)C2.Cl` [Compound 153, 4-((1R,5S,9r)-9-methoxy-3-((5-methyl-1H-imidazol-2-yl)methyl)-3-azabicyclo[3.3.1]nonan-9-yl)picolinamide hydrochloride], the Ki on μ-receptor was below 1 nM. Moreover, at human μ opioid receptor [3], the half-maximal effective concentration (EC50) is 10 to 75 nM. For the same molecule, in the data set with Male Sprague-Dawley rats [1] (minimum dose at which maximal reversal of hind paw weight bearing (50±0.5%) was achieved, subcutaneous administration, rat), the “MEMD SC CFA” value came out at 1 mg/kg.
With `COC1(c2cccc(C(N)=O)c2)C2CCCC1CN(CCc1cnn[nH]1)C2.Cl` [Compound 155, 3-((1R,5S,9r)-3-(2-(1H-1,2,3-triazol-4-yl)ethyl)-9-methoxy-3-azabicyclo[3.3.1]nonan-9-yl)benzamide hydrochloride], on μ-receptor, the Ki is below 1 nM. The molecule further returned an EC50 at human μ opioid receptor [3] below 10 nM. The minimal effective dose in the data set on Male Sprague-Dawley rats [1] (setting [5]) came out at 1 mg/kg.
Turning to `CCOC1(c2ccnc(C(N)=O)c2)C2CCCC1CNC2` (stereo not drawn) [Compound 161], on human μ opioid receptor [4], the EC50 is 10 to 75 nM. Besides, the minimal effective dose in the data set with Male Sprague-Dawley rats [1] (setting [5]) is 0.3 mg/kg.
In turn, `COC1(c2cccc(C(N)=O)c2)C2CCCC1CN(C[C@H]1[C@@H]3COC[C@@H]31)C2.Cl` (stereo partly drawn) [Compound 176] yielded a Ki at μ-receptor below 1 nM. The molecule also showed an EC50 at human μ opioid receptor [3] below 10 nM. Further, the minimal effective dose in the data set on Male Sprague-Dawley rats [1] (setting [5]) turned out to be 0.1 mg/kg.
On to `CN1CC[C@]23c4c5ccc(O)c4O[C@H]2[C@@H](O)C=C[C@H]3[C@H]1C5` [Morphine, reference compound], for which, in the data set with Male Sprague-Dawley rats [1] (setting [8]), the minimal effective dose was determined as 3 mg/kg. In addition, the “<60 mmHg @ 10X CFA MEMD” value with Male Sprague-Dawley rats [2] (in vivo, sc) was “− (key: −: resulted in a maximum pCO2 value of greater than 60 mmHg within 2 hours of administration; +: resulted in a maximum pCO2 value of less than 60 mmHg within 2 hours of administration)”.
As to `Oc1ccc2c3c1O[C@H]1[C@@H](O)CC[C@@]4(O)[C@@H](C2)N(CC2CCC2)CC[C@]314` [Nalbuphine, reference compound], in the data set with Male Sprague-Dawley rats [1] (setting [8]), the minimal effective dose is above 10 mg/kg.
On to `COc1ccc2c3c1O[C@H]1C(=O)CC[C@@]4(O)[C@@H](C2)N(C)CC[C@]314` [Oxycodone, reference compound], for which the minimal effective dose in the data set with Male Sprague-Dawley rats [1] (setting [8]) was found to be 3 mg/kg. Moreover, the “<60 mmHg @ 10X CFA MEMD” value with Male Sprague-Dawley rats [2] (in vivo, sc) is on record as “− (key: −: resulted in a maximum pCO2 value of greater than 60 mmHg within 2 hours of administration; +: resulted in a maximum pCO2 value of less than 60 mmHg within 2 hours of administration)”.
